The values that follow come from PubChem BioAssay AID2060508 (Molecular Pharmacology Branch, DTP, NCI, 2025).

Broadly, the viability, T/C is the ratio of treated to control.
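Further: spheroids exposed to compounds for seven days; 100% = DMSO vehicle control viability.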

The first test deals with 454973-116-R2-J3-PDC spheroids, viability, % test/control. Kind of test: Anticancer human tumor 454973-116-R2-J3-PDC patient-derived pancreatic carcinoma cell line growth inhibition [GQUAD]. As to conditions: second compound 3.16 µM; first compound 0.1 µM; stronger effect = lower value; spheroids with HUVEC and MSC. The method, boiled down:
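Viability of tumor cells grown as complex spheroids with endothelial and stromal cells, exposed to drug combinations. Top concentration at or near clinical Cmax (else 10 microM), diluted in half-log increments.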
On to `Cc1cccc(N(C)C(=O)C2C(O)CCN2c2nc(C)cc(C(F)(F)F)c2C#N)c1` (configuration not stated) + Cc1cnc(CNC(=O)c2c(=O)c3ccc(N4CCCN(C)CC4)nc3n3c2sc2ccccc23)cn1, for which the viability, T/C is 59.4%.

On to `O=C(c1cc(Cc2n[nH]c(=O)c3ccccc23)ccc1F)N1CCN(C(=O)C2CC2)CC1` + Cc1cnc(CNC(=O)c2c(=O)c3ccc(N4CCCN(C)CC4)nc3n3c2sc2ccccc23)cn1, for which the viability, T/C was 69.1%.

Staying with this test, now noted: second compound 3.16 µM; first compound 0.316 µM; stronger effect = lower value; spheroids with HUVEC and MSC.
As for `C=CC(=O)N1CCN(c2nc(=O)n(-c3c(C)ccnc3C(C)C)c3nc(-c4c(O)cccc4F)c(F)cc23)C(C)C1` (configuration not stated) + Cc1cnc(CNC(=O)c2c(=O)c3ccc(N4CCCN(C)CC4)nc3n3c2sc2ccccc23)cn1, the viability, T/C was 78.5%.

Consider `CC(C)n1c(=O)n(C)c2cnc3cc(F)c(-c4ccc(OCCCN5CCCCC5)nc4)cc3c21` + Cc1cnc(CNC(=O)c2c(=O)c3ccc(N4CCCN(C)CC4)nc3n3c2sc2ccccc23)cn1, for which the viability, T/C is 56.1%.

Regarding `Cc1cccc(N(C)C(=O)C2C(O)CCN2c2nc(C)cc(C(F)(F)F)c2C#N)c1` (configuration not stated) + Cc1cnc(CNC(=O)c2c(=O)c3ccc(N4CCCN(C)CC4)nc3n3c2sc2ccccc23)cn1, the viability, T/C was 62.1%.

Consider `O=C(c1cc(Cc2n[nH]c(=O)c3ccccc23)ccc1F)N1CCN(C(=O)C2CC2)CC1` + Cc1cnc(CNC(=O)c2c(=O)c3ccc(N4CCCN(C)CC4)nc3n3c2sc2ccccc23)cn1, for which the viability, T/C was 64%.

The test is the same for the next values; noted with them: second compound 3.16 µM; first compound 1 µM; stronger effect = lower value; spheroids with HUVEC and MSC.
On to `C=CC(=O)N1CCN(c2nc(=O)n(-c3c(C)ccnc3C(C)C)c3nc(-c4c(O)cccc4F)c(F)cc23)C(C)C1` (configuration not stated) + Cc1cnc(CNC(=O)c2c(=O)c3ccc(N4CCCN(C)CC4)nc3n3c2sc2ccccc23)cn1, for which the viability, T/C is 74.4%.

For the compound `CC(C)n1c(=O)n(C)c2cnc3cc(F)c(-c4ccc(OCCCN5CCCCC5)nc4)cc3c21` + Cc1cnc(CNC(=O)c2c(=O)c3ccc(N4CCCN(C)CC4)nc3n3c2sc2ccccc23)cn1, the viability, T/C was 57.4%.

On to `Cc1cccc(N(C)C(=O)C2C(O)CCN2c2nc(C)cc(C(F)(F)F)c2C#N)c1` (configuration not stated) + Cc1cnc(CNC(=O)c2c(=O)c3ccc(N4CCCN(C)CC4)nc3n3c2sc2ccccc23)cn1, for which the viability, T/C is 65.3%.

On to `O=C(c1cc(Cc2n[nH]c(=O)c3ccccc23)ccc1F)N1CCN(C(=O)C2CC2)CC1` + Cc1cnc(CNC(=O)c2c(=O)c3ccc(N4CCCN(C)CC4)nc3n3c2sc2ccccc23)cn1, for which the viability, T/C was 60.9%.

Still in this test, the particulars now being: second compound 3.16 µM; first compound 3.16 µM; stronger effect = lower value; spheroids with HUVEC and MSC.
As for `C=CC(=O)N1CCN(c2nc(=O)n(-c3c(C)ccnc3C(C)C)c3nc(-c4c(O)cccc4F)c(F)cc23)C(C)C1` (configuration not stated) + Cc1cnc(CNC(=O)c2c(=O)c3ccc(N4CCCN(C)CC4)nc3n3c2sc2ccccc23)cn1, the viability, T/C is 86.6%.

For the compound `CC(C)n1c(=O)n(C)c2cnc3cc(F)c(-c4ccc(OCCCN5CCCCC5)nc4)cc3c21` + Cc1cnc(CNC(=O)c2c(=O)c3ccc(N4CCCN(C)CC4)nc3n3c2sc2ccccc23)cn1, the viability, T/C was 58.3%.

As for `Cc1cccc(N(C)C(=O)C2C(O)CCN2c2nc(C)cc(C(F)(F)F)c2C#N)c1` (configuration not stated) + Cc1cnc(CNC(=O)c2c(=O)c3ccc(N4CCCN(C)CC4)nc3n3c2sc2ccccc23)cn1, the viability, T/C is 58.2%.

Take `O=C(c1cc(Cc2n[nH]c(=O)c3ccccc23)ccc1F)N1CCN(C(=O)C2CC2)CC1` + Cc1cnc(CNC(=O)c2c(=O)c3ccc(N4CCCN(C)CC4)nc3n3c2sc2ccccc23)cn1: the viability, T/C was 58.3%.

The test is the same for the next values; noted with them: second compound 3.16 µM; first compound 10 µM; stronger effect = lower value; spheroids with HUVEC and MSC.
On to `C=CC(=O)N1CCN(c2nc(=O)n(-c3c(C)ccnc3C(C)C)c3nc(-c4c(O)cccc4F)c(F)cc23)C(C)C1` (configuration not stated) + Cc1cnc(CNC(=O)c2c(=O)c3ccc(N4CCCN(C)CC4)nc3n3c2sc2ccccc23)cn1, for which the viability, T/C was 76.7%.

In the case of `CC(C)n1c(=O)n(C)c2cnc3cc(F)c(-c4ccc(OCCCN5CCCCC5)nc4)cc3c21` + Cc1cnc(CNC(=O)c2c(=O)c3ccc(N4CCCN(C)CC4)nc3n3c2sc2ccccc23)cn1, the viability, T/C was 44.4%.

As for `Cc1cccc(N(C)C(=O)C2C(O)CCN2c2nc(C)cc(C(F)(F)F)c2C#N)c1` (configuration not stated) + Cc1cnc(CNC(=O)c2c(=O)c3ccc(N4CCCN(C)CC4)nc3n3c2sc2ccccc23)cn1, the viability, T/C is 68.4%.

`O=C(c1cc(Cc2n[nH]c(=O)c3ccccc23)ccc1F)N1CCN(C(=O)C2CC2)CC1` + Cc1cnc(CNC(=O)c2c(=O)c3ccc(N4CCCN(C)CC4)nc3n3c2sc2ccccc23)cn1: the viability, T/C was 56.2%.

The same test, now with this note: second compound 10 µM; first compound 0.0316 µM; stronger effect = lower value; spheroids with HUVEC and MSC.
`C=CC(=O)N1CCN(c2nc(=O)n(-c3c(C)ccnc3C(C)C)c3nc(-c4c(O)cccc4F)c(F)cc23)C(C)C1` (configuration not stated) + Cc1cnc(CNC(=O)c2c(=O)c3ccc(N4CCCN(C)CC4)nc3n3c2sc2ccccc23)cn1: the viability, T/C was 0.33%.

For the compound `CC(C)n1c(=O)n(C)c2cnc3cc(F)c(-c4ccc(OCCCN5CCCCC5)nc4)cc3c21` + Cc1cnc(CNC(=O)c2c(=O)c3ccc(N4CCCN(C)CC4)nc3n3c2sc2ccccc23)cn1, the viability, T/C is 0.28%.

`Cc1cccc(N(C)C(=O)C2C(O)CCN2c2nc(C)cc(C(F)(F)F)c2C#N)c1` (configuration not stated) + Cc1cnc(CNC(=O)c2c(=O)c3ccc(N4CCCN(C)CC4)nc3n3c2sc2ccccc23)cn1: the viability, T/C was 0.75%.

For `O=C(c1cc(Cc2n[nH]c(=O)c3ccccc23)ccc1F)N1CCN(C(=O)C2CC2)CC1` + Cc1cnc(CNC(=O)c2c(=O)c3ccc(N4CCCN(C)CC4)nc3n3c2sc2ccccc23)cn1, the viability, T/C is 0.27%.

Staying with this test, now noted: second compound 10 µM; first compound 0.1 µM; stronger effect = lower value; spheroids with HUVEC and MSC.
As for `C=CC(=O)N1CCN(c2nc(=O)n(-c3c(C)ccnc3C(C)C)c3nc(-c4c(O)cccc4F)c(F)cc23)C(C)C1` (configuration not stated) + Cc1cnc(CNC(=O)c2c(=O)c3ccc(N4CCCN(C)CC4)nc3n3c2sc2ccccc23)cn1, the viability, T/C is 19.3%.

With `CC(C)n1c(=O)n(C)c2cnc3cc(F)c(-c4ccc(OCCCN5CCCCC5)nc4)cc3c21` + Cc1cnc(CNC(=O)c2c(=O)c3ccc(N4CCCN(C)CC4)nc3n3c2sc2ccccc23)cn1, the viability, T/C was 0.31%.

With `Cc1cccc(N(C)C(=O)C2C(O)CCN2c2nc(C)cc(C(F)(F)F)c2C#N)c1` (configuration not stated) + Cc1cnc(CNC(=O)c2c(=O)c3ccc(N4CCCN(C)CC4)nc3n3c2sc2ccccc23)cn1, the viability, T/C was 16.9%.

In the case of `O=C(c1cc(Cc2n[nH]c(=O)c3ccccc23)ccc1F)N1CCN(C(=O)C2CC2)CC1` + Cc1cnc(CNC(=O)c2c(=O)c3ccc(N4CCCN(C)CC4)nc3n3c2sc2ccccc23)cn1, the viability, T/C is 18.9%.

Still in this test, the particulars now being: second compound 10 µM; first compound 0.316 µM; stronger effect = lower value; spheroids with HUVEC and MSC.
As to `C=CC(=O)N1CCN(c2nc(=O)n(-c3c(C)ccnc3C(C)C)c3nc(-c4c(O)cccc4F)c(F)cc23)C(C)C1` (configuration not stated) + Cc1cnc(CNC(=O)c2c(=O)c3ccc(N4CCCN(C)CC4)nc3n3c2sc2ccccc23)cn1, the viability, T/C was 58.5%.

As to `CC(C)n1c(=O)n(C)c2cnc3cc(F)c(-c4ccc(OCCCN5CCCCC5)nc4)cc3c21` + Cc1cnc(CNC(=O)c2c(=O)c3ccc(N4CCCN(C)CC4)nc3n3c2sc2ccccc23)cn1, the viability, T/C was 14%.

For the compound `Cc1cccc(N(C)C(=O)C2C(O)CCN2c2nc(C)cc(C(F)(F)F)c2C#N)c1` (configuration not stated) + Cc1cnc(CNC(=O)c2c(=O)c3ccc(N4CCCN(C)CC4)nc3n3c2sc2ccccc23)cn1, the viability, T/C is 51.1%.

Take `O=C(c1cc(Cc2n[nH]c(=O)c3ccccc23)ccc1F)N1CCN(C(=O)C2CC2)CC1` + Cc1cnc(CNC(=O)c2c(=O)c3ccc(N4CCCN(C)CC4)nc3n3c2sc2ccccc23)cn1: the viability, T/C is 15.1%.

The same test, now with this note: second compound 10 µM; first compound 1 µM; stronger effect = lower value; spheroids with HUVEC and MSC.
Turning to `C=CC(=O)N1CCN(c2nc(=O)n(-c3c(C)ccnc3C(C)C)c3nc(-c4c(O)cccc4F)c(F)cc23)C(C)C1` (configuration not stated) + Cc1cnc(CNC(=O)c2c(=O)c3ccc(N4CCCN(C)CC4)nc3n3c2sc2ccccc23)cn1, the viability, T/C is 70.6%.

In the case of `CC(C)n1c(=O)n(C)c2cnc3cc(F)c(-c4ccc(OCCCN5CCCCC5)nc4)cc3c21` + Cc1cnc(CNC(=O)c2c(=O)c3ccc(N4CCCN(C)CC4)nc3n3c2sc2ccccc23)cn1, the viability, T/C is 0.33%.

Turning to `Cc1cccc(N(C)C(=O)C2C(O)CCN2c2nc(C)cc(C(F)(F)F)c2C#N)c1` (configuration not stated) + Cc1cnc(CNC(=O)c2c(=O)c3ccc(N4CCCN(C)CC4)nc3n3c2sc2ccccc23)cn1, the viability, T/C was 34.8%.

For the compound `O=C(c1cc(Cc2n[nH]c(=O)c3ccccc23)ccc1F)N1CCN(C(=O)C2CC2)CC1` + Cc1cnc(CNC(=O)c2c(=O)c3ccc(N4CCCN(C)CC4)nc3n3c2sc2ccccc23)cn1, the viability, T/C was 35.9%.

Still in this test, the particulars now being: second compound 10 µM; first compound 3.16 µM; stronger effect = lower value; spheroids with HUVEC and MSC.
For the compound `C=CC(=O)N1CCN(c2nc(=O)n(-c3c(C)ccnc3C(C)C)c3nc(-c4c(O)cccc4F)c(F)cc23)C(C)C1` (configuration not stated) + Cc1cnc(CNC(=O)c2c(=O)c3ccc(N4CCCN(C)CC4)nc3n3c2sc2ccccc23)cn1, the viability, T/C is 0.37%.

Regarding `CC(C)n1c(=O)n(C)c2cnc3cc(F)c(-c4ccc(OCCCN5CCCCC5)nc4)cc3c21` + Cc1cnc(CNC(=O)c2c(=O)c3ccc(N4CCCN(C)CC4)nc3n3c2sc2ccccc23)cn1, the viability, T/C was 0.3%.

Consider `Cc1cccc(N(C)C(=O)C2C(O)CCN2c2nc(C)cc(C(F)(F)F)c2C#N)c1` (configuration not stated) + Cc1cnc(CNC(=O)c2c(=O)c3ccc(N4CCCN(C)CC4)nc3n3c2sc2ccccc23)cn1, for which the viability, T/C was 0.59%.

As to `O=C(c1cc(Cc2n[nH]c(=O)c3ccccc23)ccc1F)N1CCN(C(=O)C2CC2)CC1` + Cc1cnc(CNC(=O)c2c(=O)c3ccc(N4CCCN(C)CC4)nc3n3c2sc2ccccc23)cn1, the viability, T/C is 0.4%.

The same test, now with this note: second compound 10 µM; first compound 10 µM; stronger effect = lower value; spheroids with HUVEC and MSC.
For `C=CC(=O)N1CCN(c2nc(=O)n(-c3c(C)ccnc3C(C)C)c3nc(-c4c(O)cccc4F)c(F)cc23)C(C)C1` (configuration not stated) + Cc1cnc(CNC(=O)c2c(=O)c3ccc(N4CCCN(C)CC4)nc3n3c2sc2ccccc23)cn1, the viability, T/C is 1.42%.

For `CC(C)n1c(=O)n(C)c2cnc3cc(F)c(-c4ccc(OCCCN5CCCCC5)nc4)cc3c21` + Cc1cnc(CNC(=O)c2c(=O)c3ccc(N4CCCN(C)CC4)nc3n3c2sc2ccccc23)cn1, the viability, T/C is 0.25%.

As to `Cc1cccc(N(C)C(=O)C2C(O)CCN2c2nc(C)cc(C(F)(F)F)c2C#N)c1` (configuration not stated) + Cc1cnc(CNC(=O)c2c(=O)c3ccc(N4CCCN(C)CC4)nc3n3c2sc2ccccc23)cn1, the viability, T/C is 0.31%.

`O=C(c1cc(Cc2n[nH]c(=O)c3ccccc23)ccc1F)N1CCN(C(=O)C2CC2)CC1` + Cc1cnc(CNC(=O)c2c(=O)c3ccc(N4CCCN(C)CC4)nc3n3c2sc2ccccc23)cn1: the viability, T/C is 0.28%.
